Series [1] has as its system T4 lymphocytes. Description: Drug effect on noninfected T4 lymphocytes (NCI XTT assay), IC50. Type of series: cell-based. From the text: (§1) The gallium (III) complexes were screened for anti-HIV-1 activity at the National Cancer Institute, Bethesda, Md., as part of their in vitro Anti-AIDS Drug Discovery Program. The assay is based on the killing (cytopathic effect) of T4 lymphocytes by human immunodeficiency virus (HIV-1) and is designed to evaluate the drug effects at any stage of the virus reproductive cycle. […] All tests are compared with a positive control done at the same time and under identical conditions employing 3'-Azido-3'-deoxythymidine (AZT).
(§2) The general procedure is reprinted below from NCI infomation sheets:
(§3) 1. Candidate agent is dissolved in dimethylsulfoxide, then diluted 1:2000 in cell culture medium. […] dilutions (half-log10) are prepared before adding to 96-well microtiter plated.
(§4) 2. T4 lymphocytes (CEN cell line) are exposed to HIV at a virus-to-cell ratio of approximately 0.05 and are plated along with noninfected control cells into drug-containing wells or wells with medium alone.
(§5) 3. Cultures are incubated at 37° C. in a 5% carbon dioxide atmosphere for 6 days.
(§6) 4. The tetrazolium salt, XTT, is added to all wells, and cultures are incubated to allow formazon colour development by viable cells.
(§7) 5. Individual wells are analysed spectrophotometrically to quantitate formazon production and, in addition, are viewed microscopically for detection of viable cells and confirmation of protective activity.
(§8) 6. Drug-treated virus-infected cells are compared with drug-treated noninfected cells and with other appropriate controls (untreated infected and untreated noninfected cells, drug-containing wells without cells, etc.) on the same plate.
(§9) 7. Data reviewed in comparison with other tests done at the same time, and a determination about activity is made.
(Tetrazolium assays rely on reduction of a dye to a coloured formazan, in cell work by metabolically active cells.)

In series [2] the test system is human immunodeficiency virus (HIV-1). Description: Anti-HIV-1 activity, protection of T4 lymphocytes from killing by virus (NCI XTT assay). Type of series: cell-based.
Text: as §1, §2, §3, §4, §5, §6, §7, §8, §9

Series [3] has as its system reverse transcriptase of Rauscher murine leukemia virus. The settings on record: in vitro; Waalkes et al. 1974; cited from earlier work.
A further series deals with refractory lymphomas. As to conditions: phase II trials, patients with refractory lymphomas; Foster et al. 1986; cited from earlier work.
Series [4] concerns experimental animal tumors. As to conditions: Adamson et al. 1975; cited from earlier work.
Another series has as its system sarcoma 180. As to conditions: sarcoma 180 system. How it is done: The gallium complexes were administered to animals bearing the P-388 leukaemia or the sarcoma 180 system and the average survival time (T) of the treated animals was compared with the average survival of control animals C. A high value T/C is characteristic of an antitumoral activity. [formula]
In a further series the test system is P-388 leukaemia. Description: Antitumor activity, P-388 leukaemia, survival T/C. Type of series: in vivo. The settings on record: P 388 system.
The conditions of series [5]: per os, aqueous formulation, therapeutical dosages; EP-B1-0059148; cited from earlier work.
Series [6] relates to human immunodeficiency virus (HIV-1). The settings on record: cited from earlier work; for EC50: read-out: EC50 (anti-HIV activity).
Series [7] concerns T4 lymphocytes. As to conditions: cited from earlier work.
Where [8] appears, read: CEM-SS, values from O. S. Weislow et al.
Setting [9] is: CEM, values from R. Vince et al.

Where two headings read alike, the source gives them in different places.

The term IC50 denotes the midpoint of a concentration-inhibition curve. One may read the EC50 as the concentration that produces a half-maximal response.

`Cc1cn[nH]c1.Cc1cn[nH]c1.Cc1cn[nH]c1.Cc1cn[nH]c1.[Cl-].[Cl-].[Cl][Ga-]([Cl])([Cl])[Cl].[Ga+3]` [[(4-mpyr)4 GaCl2]GaCl4, trans-Dichlorotetrakis-(4-methylpyrazole)gallium(II) tetrachlorogallate(III)]: the IC50 turned out to be 256 µM in the series with T4 lymphocytes [1] (CEM-6) and 197 µM in the series on T4 lymphocytes [1] (CEM-IW). Further, the 50% effective concentration (EC50) in series [2] (CEM-6) is 231 µM; in series [2] (CEM-IW) it was 50.2 µM. Further, the “TI = IC50 /EC50” value in series [2] (CEM-6) worked out at 1.11; in [2] (CEM-IW), 3.92.

`O=[N+]([O-])[O-].O=[N+]([O-])[O-].O=[N+]([O-])[O-].[Ga+3]` [gallium nitrate]: the “inhibition of reverse transcriptase” value in series [3] is “inhibits the reverse transcriptase”. Moreover, the antitumor activity entry is on record as “exhibits antitumor activity” with refractory lymphomas and “had shown antitumor activity” in series [4].

For `O=S(=O)([O-])c1ccc([O-])c2ncccc12.O=S(=O)([O-])c1ccc([O-])c2ncccc12.O=S(=O)([O-])c1ccc([O-])c2ncccc12.[Ga+3].[K+].[K+].[K+]` [Tris-(5-sulfono-8-hydroxyquinoline)gallium(III)-potassium salt], the “T/C (survival time of treated versus control animals)” value with sarcoma 180 amounted to 153%.

In the series with T4 lymphocytes [1] (CEM-IW), “Dichloro-(2-α-oxybenzylbenzimidzoiato-N,O)gallium(III) [(HBB)GaCl2]” came in with an IC50 of 221 µM. In series [2] (CEM-IW), the concentration for a half-maximal effect (EC50) is 43 µM and the “TI = IC50 /EC50” value was 5.14. In the series on P-388 leukaemia, the “T/C (survival time of treated versus control animals)” value was 130%.

In the series on T4 lymphocytes [1] (CEM-6), `Cc1ccn[nH]1.Cc1ccn[nH]1.Cc1ccn[nH]1.Cc1ccn[nH]1.[Cl-].[Cl-].[Cl][Ga-]([Cl])([Cl])[Cl].[Ga+3]` [[(3-mpyr)4 GaCl2]GaCl4, trans-Dichlorotetrakis-(5-methylpyrazole)gallium (III) tetrachlorogallate (III)] registered an IC50 of 164 µM. In addition, in series [2] (CEM-6), the concentration giving a half-maximal response (EC50) amounted to 108 µM and the “TI = IC50 /EC50” value is 1.52.

Regarding `[Cl-].[Cl-].[Cl-].[Ga+3]` [GaCl3, gallium (III) chloride], in series [5], the renal toxicity result is “no renal toxicity”.

Turning to “trans-Dichlorotetrakis-(benzimidazole)gallium(III) chloride [[(bim)4 GaCl2]Cl]”, the concentration for half-maximal inhibition (IC50) in the series on T4 lymphocytes [1] (CEM-6) was found to be 385 µM. Besides, in series [2] (CEM-6), the EC50 amounted to 5.01 µM and the “TI = IC50 /EC50” value is 76.9.

Turning to `Cc1cn([C@H]2C[C@H](N=[N+]=[N-])[C@@H](CO)O2)c(=O)[nH]c1=O` [AZT, 3'-Azido-3'-deoxythymidine], the figures for the “TI = IC50 /EC50” value in [6] (setting [8]) and in series [6] (setting [9]) were 1027 and 3680, respectively. The EC50 is 0.186 µM in [6] (setting [8]) and 0.187 µM in [6] (setting [9]). Also, the IC50 is 191 µM in the series on T4 lymphocytes [7] (setting [8]) and 689 µM with T4 lymphocytes [7] (setting [9]).

Source of the values: patent publication US5525598A, “Gallium (III) complexes in pharmaceutical compositions” (Collery; Phillippe, priority 1991, dated 1996).
